# Reference: patent US8993574B2, “Pyrrole antifungal agents” (F2G Ltd, priority 2008, dated 2015)
# Tests used:
# Type in all cases: cell-based
# [1] = system: Aspergillus fumigatus AF210; experiment: MIC, YAG medium; settings: Aspergillus fumigatus, 24 h at 35° C, MIC banded into grades, read-out: MIC grade, A. fumigatus 210
# Procedure, shortened: (§1)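 DMSO stocks diluted in water as doubling series; spore suspension in YAG (glucose, NH4Cl, yeast extract) added to give 1−2×10^4 cfu/mL. 35° C, 24 h. Growth by OD485; MIC at >70% inhibition, mg/L.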
# Aspergillus flavus [2] = experiment: MIC, YAG medium; settings: Aspergillus flavus, 24 h, 24 h at 35° C, MIC banded into grades, read-out: MIC grade, A. flavus
# Procedure, shortened: as §1
# Aspergillus niger [3] = experiment: MIC, YAG medium; settings: Aspergillus niger, 24 h at 35° C, MIC banded into grades, read-out: MIC grade, A. niger
# Procedure, shortened: as §1
# Aspergillus terreus AT49 [4] = experiment: MIC, YAG medium; settings: Aspergillus terreus, 24 h at 35° C, MIC banded into grades, read-out: MIC grade, A. terreus 49
# Procedure, shortened: as §1
# Aspergillus terreus AT4 [5] = experiment: MIC, YAG medium; settings: Aspergillus terreus, 24 h at 35° C, MIC banded into grades, read-out: MIC grade, A. terreus
# Procedure, shortened: as §1
# [6] = system: Aspergillus fumigatus AF293; experiment: MIC, YAG medium; settings: Aspergillus fumigatus, 24 h at 35° C, MIC banded into grades, read-out: MIC grade, A. fumigatus
# Procedure, shortened: as §1
# [7] = system: Aspergillus fumigatus AF210; experiment: MIC, RPMI medium; settings: Aspergillus fumigatus, AF210, MIC banded into grades, read-out: MIC grade, A. fumigatus 210
# Procedure, shortened: (§2)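 Minimum inhibitory concentrations were determined in glucose-supplemented (2%) RPMI buffered to pH 7.0 with 0.135 M MOPS. Wells held 1−2×10^4 cfu/mL and compound from 50 to 0.05 mg/L, incubated 24-48 h at 35° C, with >80% growth reduction by OD 485 nm as endpoint.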
# Aspergillus flavus [8] = experiment: MIC, RPMI medium; settings: Aspergillus flavus, MIC banded into grades, read-out: MIC grade, A. flavus
# Procedure, shortened: as §2
# Aspergillus niger [9] = experiment: MIC, RPMI medium; settings: Aspergillus niger, MIC banded into grades, read-out: MIC grade, A. niger
# Procedure, shortened: as §2
# Aspergillus terreus AT49 [10] = experiment: MIC, RPMI medium; settings: Aspergillus terreus, AT49, MIC banded into grades, read-out: MIC grade, A. terreus 49
# Procedure, shortened: as §2
# Aspergillus terreus AT4 [11] = experiment: MIC, RPMI medium; settings: Aspergillus terreus, AT4, MIC banded into grades, read-out: MIC grade, A. terreus
# Procedure, shortened: as §2
# [12] = system: Aspergillus fumigatus AF293; experiment: MIC, RPMI medium; settings: Aspergillus fumigatus, AF293, MIC banded into grades, read-out: MIC grade, A. fumigatus
# Procedure, shortened: as §2
SMILES,MIC [1] [µg/mL],MIC (Aspergillus flavus [2]) [µg/mL],MIC (Aspergillus niger [3]) [µg/mL],MIC (Aspergillus terreus AT49 [4]) [µg/mL],MIC (Aspergillus terreus AT4 [5]) [µg/mL],MIC [6] [µg/mL],MIC [7] [µg/mL],MIC (Aspergillus flavus [8]) [µg/mL],MIC (Aspergillus niger [9]) [µg/mL],MIC (Aspergillus terreus AT49 [10]) [µg/mL],MIC (Aspergillus terreus AT4 [11]) [µg/mL],MIC [12] [µg/mL]
"Cc1cc(C)nc(N2CCN(c3ccc(NC(=O)C(=O)c4c(-c5ccccc5)cc(C)n4CCOc4ccccc4)cc3)CC2)c1 [Example 134, N-{4-[4-(4,6-Dimethyl-pyridin-2-yl)-piperazin-1-yl]-phenyl}-2-[5-methyl-1-(2-phenoxy-ethyl)-3-phenyl-1H-pyrrol-2-yl]-2-oxo-acetamide]",> 10,1 to 10,> 10,1 to 10,1 to 10,1 to 10,> 10,> 10,> 10,> 10,> 10,> 10
"Cc1cc(C)nc(N2CCN(c3ccc(NC(=O)C(=O)c4c(C5CCOCC5)cc(C)n4C)cc3)CC2)c1 [Example 15, N-{4-[4-(4,6-Dimethyl-pyridin-2-yl)-piperazin-1-yl]-phenyl}-2-[1,5-dimethyl-3-(tetrahydro-pyran-4-yl)-1H-pyrrol-2-yl]-2-oxo-acetamide]",< 1,< 1,< 1,< 1,< 1,< 1,< 1,< 1,< 1,< 1,< 1,< 1
"Cc1cc(-c2ccccc2)c(C(=O)C(=O)Nc2cccc3ccncc23)n1C [Example 43, 2-(1,5-Dimethyl-3-phenyl-1H-pyrrol-2-yl)-N-isoquinolin-8-yl-2-oxo-acetamide]",1 to 10,< 1,> 10,1 to 10,1 to 10,1 to 10,> 10,1 to 10,> 10,> 10,1 to 10,> 10
"COCCn1c(C)cc(-c2ccccc2)c1C(=O)C(=O)Nc1cccc2ncccc12 [Example 29, 2-[1-(2-Methoxy-ethyl)-5-methyl-3-phenyl-1H-pyrrol-2-yl]-2-oxo-N-quinolin-5-yl-acetamide]",> 10,> 10,> 10,> 10,> 10,> 10,> 10,> 10,> 10,> 10,> 10,> 10
"Cc1cc(C)nc(N2CCN(c3ccc(NC(=O)C(=O)c4c(-c5ccccc5)cc(C)n4Cc4coc(C)n4)cc3)CC2)c1 [Example 146, N-{4-[4-(4,6-Dimethyl-pyridin-2-yl)-piperazin-1-yl]-phenyl}-2-[5-methyl-1-(2-methyl-oxazol-4-ylmethyl)-3-phenyl-1H-pyrrol-2-yl]-2-oxo-acetamide]",< 1,1 to 10,1 to 10,1 to 10,1 to 10,< 1,> 10,> 10,1 to 10,> 10,> 10,< 1
"Cc1cc(C)nc(N2CCN(c3ccc(NC(=O)C(=O)c4c(-c5ccccc5)cc(C)n4C)c(Cl)c3)CC2)c1 [Example 21, N-{2-Chloro-4-[4-(4,6-dimethyl-pyridin-2-yl)-piperazin-1-yl]-phenyl}-2-(1,5-dimethyl-3-phenyl-1H-pyrrol-2-yl)-2-oxo-acetamide]",< 1,< 1,< 1,< 1,< 1,< 1,< 1,< 1,< 1,< 1,< 1,< 1
"CCOCCn1c(C)cc(-c2ccccc2)c1C(=O)C(=O)Nc1ccc(N2CCN(c3cc(C)cc(C)n3)CC2)cc1 [Example 27, N-{4-[4-(4,6-Dimethyl-pyridin-2-yl)-piperazin-1-yl]-phenyl}-2-[1-(2-ethoxy-ethyl)-5-methyl-3-phenyl-1H-pyrrol-2-yl]-2-oxo-acetamide]",< 1,> 10,1 to 10,1 to 10,1 to 10,< 1,1 to 10,> 10,1 to 10,> 10,> 10,1 to 10
"Cc1cc(-c2ccccc2)c(C(=O)C(=O)Nc2ccc(N3CCN(CC(C)C)CC3)c(F)c2)n1C [Example 118, 2-(1,5-Dimethyl-3-phenyl-1H-pyrrol-2-yl)-N-[3-fluoro-4-(4-isobutyl-piperazin-1-yl)-phenyl]-2-oxo-acetamide]",< 1,< 1,< 1,< 1,< 1,< 1,< 1,< 1,< 1,< 1,< 1,< 1

# Other lines, results leading:
MIC [1] [µg/mL],MIC (Aspergillus flavus [2]) [µg/mL],MIC (Aspergillus niger [3]) [µg/mL],MIC (Aspergillus terreus AT49 [4]) [µg/mL],MIC (Aspergillus terreus AT4 [5]) [µg/mL],MIC [6] [µg/mL],MIC [7] [µg/mL],MIC (Aspergillus flavus [8]) [µg/mL],MIC (Aspergillus niger [9]) [µg/mL],MIC (Aspergillus terreus AT49 [10]) [µg/mL],MIC (Aspergillus terreus AT4 [11]) [µg/mL],MIC [12] [µg/mL],SMILES
< 1,1 to 10,1 to 10,< 1,< 1,< 1,1 to 10,> 10,> 10,1 to 10,1 to 10,1 to 10,"COCCn1c(C)cc(-c2ccccc2)c1C(=O)C(=O)Nc1ccc(N2CCOCC2)c(F)c1 [Example 126, N-(3-Fluoro-4-morpholin-4-yl-phenyl)-2-[1-(2-methoxy-ethyl)-5-methyl-3-phenyl-1H-pyrrol-2-yl]-2-oxo-acetamide]"
< 1,< 1,< 1,< 1,< 1,< 1,< 1,< 1,< 1,< 1,< 1,< 1,"COCc1cc(-c2ccccc2)c(C(=O)C(=O)Nc2ccc(N3CCN(c4cc(C)cc(C)n4)CC3)cc2)n1C [Example 130, N-{4-[4-(4,6-Dimethyl-pyridin-2-yl)-piperazin-1-yl]-phenyl}-2-(5-methoxymethyl-1-methyl-3-phenyl-1H-pyrrol-2-yl)-2-oxo-acetamide]"
< 1,< 1,< 1,< 1,< 1,< 1,< 1,< 1,< 1,< 1,< 1,< 1,"Cc1cc(C)nc(N2CCN(c3ccc(NC(=O)C(=O)c4c(-c5ccccc5)cc(C)n4C)cc3C)CC2)c1 [Example 51, 2-(1,5-Dimethyl-3-phenyl-1H-pyrrol-2-yl)-N-{4-[4-(4,6-dimethyl-pyridin-2-yl)-piperazin-1-yl]-3-methyl-phenyl}-2-oxo-acetamide]"
< 1,< 1,< 1,< 1,< 1,< 1,< 1,< 1,< 1,< 1,< 1,< 1,"Cc1cc(C)nc(N2CCN(c3ccc(NC(=O)C(=O)c4c(-c5ccccc5)c(F)c(C)n4C)cc3)CC2)c1 [Example 90, N-{4-[4-(4,6-Dimethyl-pyridin-2-yl)-piperazin-1-yl]-phenyl}-2-(4-fluoro-1,5-dimethyl-3-phenyl-1H-pyrrol-2-yl)-2-oxo-acetamide]"
